Laboratory results from patent publication US6624188B1, “Method of treatment with compounds having retinoid-like activity and reduced skin toxicity and lacking teratogenic effects” (Allergan, Inc., priority 1992, dated 2003).
In brackets after ≈: the same amount, converted by molar mass.

System: limb bud mesenchymal cells
Test: inhibition of chondrogenesis in high-density spot cultures of limb bud mesenchymal cells
Format: cell-based
Settings: Mus musculus; limb bud mesenchymal cell spot cultures, terminated 96 hours after plating; read-out: IC50 (concentration which inhibited chondrogenesis by 50%)
From the text: In an in vitro bioassay which measures inhibition of chondrogenesis (bone formation) in […] as a classic measure of teratogenecity the results shown in Table 2 were obtained. The assay is described as follows:
High-density “spot” cultures of limb bud mesenchymal cells were used to compare the ability of various concentrations of test drugs to suppress chondrogenic differentiation as a bioassay. Forelimb buds of mouse embryos on day 12 of gestation (54±2 somites) were dissociated in a trypsin-EDTA solution, and the resultant single-cell suspension was plated as 20-μl spots (200,000 cells/spot) on plastic culture dishes. Retinoid concentrations ranging from 0.3 ng/ml to 3 μg/ml (1 nM-10 μM) were added to the culture medium (Eagle's MEM+10% fetal bovine serum, GIBCO) 24 hours after initial plating. […]
The cultures were terminated 96 hours after plating, at which time the medium was removed and the cells were fixed for 1 hour in 10% formalin containing 0.5% cetylpyridinium chloride. The cultures were rinsed in acetic acid and stained for 1 hour in 0.5% Alcian blue solution at pH 1.0, differentiated in 3% acetic acid, and then dehydrated in ethanol and scored for chondrogenesis under the microscope. […] The number of cartilage nodules stained in the whole spot, mean number of nodules, and standard deviations were calculated for four replicate cultures per treatment. […]

## C/C(=C\c1ccc(C(=O)O)cc1)c1ccc2c(c1)C(C)(C)CCC2(C)C [AGN 191183, reference compound]
  IC50: 3 ng/mL (≈ 8.61 nM)
